Assay results published in article PMC4447944 (The Journal of Biological Chemistry, 2015).

Key:
hULK2 = molecular target: T1, hULK2 (Homo sapiens, UniProt Q8IYT8); experiment: KINOMEscan; type: binding
T1 construct: purchased DiscoverX

hCSNK1G3 = molecular target: T2, hCSNK1G3 (Homo sapiens, UniProt Q9Y6M4); experiment: KINOMEscan; type: binding
T2 construct: purchased DiscoverX (KINOMEscan platform)

hSTK35 = molecular target: T3, hSTK35 (Homo sapiens, UniProt Q8TDR2); experiment: KINOMEscan; type: binding
T3 construct: purchased DiscoverX (KINOMEscan platform)

hKIT(V559D,T670I) = molecular target: T4, hKIT(V559D,T670I) (Homo sapiens, UniProt P10721, T670I/V559D); experiment: KINOMEscan; type: binding
T4 construct: purchased DiscoverX (KINOMEscan platform)

hADRβ1 = hADRβ1 (Homo sapiens, UniProt P08588); experiment: cAMP Agonist (Eurofins-CEREP); conditions: @ 10 μM
hADRβ1, sequence (P08588 whole entry): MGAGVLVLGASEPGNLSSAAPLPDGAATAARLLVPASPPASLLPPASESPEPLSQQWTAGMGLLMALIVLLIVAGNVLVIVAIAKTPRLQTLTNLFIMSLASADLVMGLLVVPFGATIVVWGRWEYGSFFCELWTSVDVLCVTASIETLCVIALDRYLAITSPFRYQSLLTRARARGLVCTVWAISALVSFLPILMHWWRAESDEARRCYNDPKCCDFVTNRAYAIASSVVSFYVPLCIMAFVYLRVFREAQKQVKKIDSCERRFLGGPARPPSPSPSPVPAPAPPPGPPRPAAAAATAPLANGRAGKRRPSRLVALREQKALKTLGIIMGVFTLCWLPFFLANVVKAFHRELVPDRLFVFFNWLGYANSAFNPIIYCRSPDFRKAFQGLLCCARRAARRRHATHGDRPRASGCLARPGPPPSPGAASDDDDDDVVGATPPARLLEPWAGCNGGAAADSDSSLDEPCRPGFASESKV

hASK1 = molecular target: T5, hASK1 (Homo sapiens, UniProt Q99683); experiment: KINOMEscan; type: binding
T5 construct: purchased DiscoverX

hIGF1R = molecular target: T6, hIGF1R (Homo sapiens, UniProt P08069); experiment: KINOMEscan; type: binding
T6 construct: purchased DiscoverX (KINOMEscan panel)

hFRK = molecular target: T7, hFRK (Homo sapiens, UniProt P42685); experiment: KINOMEscan; type: binding
T7 construct: purchased DiscoverX
T7 sequence (P42685 whole entry): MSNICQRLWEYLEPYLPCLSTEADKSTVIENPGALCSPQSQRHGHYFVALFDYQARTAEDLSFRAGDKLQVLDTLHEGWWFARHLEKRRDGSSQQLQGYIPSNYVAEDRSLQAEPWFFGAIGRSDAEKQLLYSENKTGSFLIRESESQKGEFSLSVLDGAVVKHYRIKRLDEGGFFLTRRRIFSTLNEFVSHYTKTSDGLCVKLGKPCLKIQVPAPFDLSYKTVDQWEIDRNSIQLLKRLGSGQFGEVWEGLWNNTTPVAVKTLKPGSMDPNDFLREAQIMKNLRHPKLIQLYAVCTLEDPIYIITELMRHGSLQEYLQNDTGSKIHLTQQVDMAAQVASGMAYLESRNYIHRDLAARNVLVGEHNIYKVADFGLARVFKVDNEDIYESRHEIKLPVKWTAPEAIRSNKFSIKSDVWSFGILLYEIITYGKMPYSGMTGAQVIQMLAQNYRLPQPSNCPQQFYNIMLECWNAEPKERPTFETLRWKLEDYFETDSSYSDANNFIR

hADRα2A = molecular target: T8, hADRα2A (Homo sapiens, UniProt P08913); experiment: cAMP Agonist (Eurofins-CEREP); conditions: @ 10 μM
T8 sequence (P08913 1-465): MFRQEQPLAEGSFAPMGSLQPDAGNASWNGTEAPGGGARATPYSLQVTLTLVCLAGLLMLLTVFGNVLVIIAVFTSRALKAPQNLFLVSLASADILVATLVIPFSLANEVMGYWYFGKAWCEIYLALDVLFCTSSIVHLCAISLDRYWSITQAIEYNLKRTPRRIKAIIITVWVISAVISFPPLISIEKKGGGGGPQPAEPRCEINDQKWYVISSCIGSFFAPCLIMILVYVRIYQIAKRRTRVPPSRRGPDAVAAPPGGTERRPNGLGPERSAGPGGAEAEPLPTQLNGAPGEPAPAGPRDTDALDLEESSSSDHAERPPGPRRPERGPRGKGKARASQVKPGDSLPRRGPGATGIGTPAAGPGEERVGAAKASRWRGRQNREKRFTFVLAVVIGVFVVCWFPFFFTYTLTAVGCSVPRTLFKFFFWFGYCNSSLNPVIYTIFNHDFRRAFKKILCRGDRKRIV

hWEE1 = molecular target: T9, hWEE1 (Homo sapiens, UniProt P30291); experiment: KINOMEscan; type: binding
T9 construct: purchased DiscoverX

hEPHB4 = molecular target: T10, hEPHB4 (Homo sapiens, UniProt P54760); experiment: KINOMEscan; type: binding
T10 construct: purchased DiscoverX

hEGFR(L747-T751del,Sins) = hEGFR(L747-T751del,Sins) (Homo sapiens, UniProt P00533, DEL747-751/INS746S); experiment: KINOMEscan; type: binding
hLYN = molecular target: T11, hLYN (Homo sapiens, UniProt P07948); experiment: KINOMEscan; type: binding
T11 construct: purchased DiscoverX (KINOMEscan platform)

h5HT2B = h5HT2B (Homo sapiens, UniProt P41595); experiment: Calcium Mobilization Potentiation (Eurofins-CEREP); conditions: @ 10 μM
h5HT2B, sequence (P41595 whole entry): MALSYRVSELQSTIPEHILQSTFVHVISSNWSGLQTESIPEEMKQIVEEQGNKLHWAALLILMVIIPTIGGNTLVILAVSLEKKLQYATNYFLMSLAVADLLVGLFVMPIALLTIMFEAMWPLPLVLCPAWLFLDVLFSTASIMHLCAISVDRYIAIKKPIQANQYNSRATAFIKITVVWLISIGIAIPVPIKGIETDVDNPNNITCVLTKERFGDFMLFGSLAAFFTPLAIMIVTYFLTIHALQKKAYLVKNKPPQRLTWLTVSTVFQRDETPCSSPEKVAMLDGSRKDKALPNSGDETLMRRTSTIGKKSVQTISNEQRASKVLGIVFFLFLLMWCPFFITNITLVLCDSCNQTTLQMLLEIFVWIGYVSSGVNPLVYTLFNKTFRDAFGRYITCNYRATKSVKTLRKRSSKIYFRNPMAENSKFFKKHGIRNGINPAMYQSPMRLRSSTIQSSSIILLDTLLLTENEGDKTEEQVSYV

hINSRR = molecular target: T12, hINSRR (Homo sapiens, UniProt P14616); experiment: KINOMEscan; type: binding
T12 construct: purchased DiscoverX (KINOMEscan panel)

hFYN = molecular target: T13, hFYN (Homo sapiens, UniProt P06241); experiment: KINOMEscan; type: binding
T13 construct: purchased DiscoverX
T13 sequence (P06241 whole entry): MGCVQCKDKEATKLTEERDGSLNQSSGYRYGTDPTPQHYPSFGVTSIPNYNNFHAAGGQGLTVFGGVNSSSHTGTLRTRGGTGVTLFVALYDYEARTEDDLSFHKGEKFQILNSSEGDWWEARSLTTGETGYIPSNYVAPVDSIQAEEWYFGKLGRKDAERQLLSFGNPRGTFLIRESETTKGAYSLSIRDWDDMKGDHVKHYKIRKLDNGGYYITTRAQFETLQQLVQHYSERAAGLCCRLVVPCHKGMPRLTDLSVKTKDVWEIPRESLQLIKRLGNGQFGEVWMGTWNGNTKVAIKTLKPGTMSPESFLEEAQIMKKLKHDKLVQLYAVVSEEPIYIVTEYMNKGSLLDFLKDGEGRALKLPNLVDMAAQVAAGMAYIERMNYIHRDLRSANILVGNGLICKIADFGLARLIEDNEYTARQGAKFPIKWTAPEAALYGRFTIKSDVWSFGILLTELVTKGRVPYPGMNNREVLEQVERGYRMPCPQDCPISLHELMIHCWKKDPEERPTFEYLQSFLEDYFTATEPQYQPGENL

hFGFR3 = molecular target: T14, hFGFR3 (Homo sapiens, UniProt P22607); experiment: KINOMEscan; type: binding
T14 construct: purchased DiscoverX

hMARK4 = molecular target: T15, hMARK4 (Homo sapiens, UniProt Q96L34); experiment: KINOMEscan; type: binding
T15 construct: purchased DiscoverX

hMAP3K1 = molecular target: T16, hMAP3K1 (Homo sapiens, UniProt Q13233); experiment: KINOMEscan; type: binding
T16 construct: purchased DiscoverX (KINOMEscan platform)
T16 sequence (Q13233 whole entry): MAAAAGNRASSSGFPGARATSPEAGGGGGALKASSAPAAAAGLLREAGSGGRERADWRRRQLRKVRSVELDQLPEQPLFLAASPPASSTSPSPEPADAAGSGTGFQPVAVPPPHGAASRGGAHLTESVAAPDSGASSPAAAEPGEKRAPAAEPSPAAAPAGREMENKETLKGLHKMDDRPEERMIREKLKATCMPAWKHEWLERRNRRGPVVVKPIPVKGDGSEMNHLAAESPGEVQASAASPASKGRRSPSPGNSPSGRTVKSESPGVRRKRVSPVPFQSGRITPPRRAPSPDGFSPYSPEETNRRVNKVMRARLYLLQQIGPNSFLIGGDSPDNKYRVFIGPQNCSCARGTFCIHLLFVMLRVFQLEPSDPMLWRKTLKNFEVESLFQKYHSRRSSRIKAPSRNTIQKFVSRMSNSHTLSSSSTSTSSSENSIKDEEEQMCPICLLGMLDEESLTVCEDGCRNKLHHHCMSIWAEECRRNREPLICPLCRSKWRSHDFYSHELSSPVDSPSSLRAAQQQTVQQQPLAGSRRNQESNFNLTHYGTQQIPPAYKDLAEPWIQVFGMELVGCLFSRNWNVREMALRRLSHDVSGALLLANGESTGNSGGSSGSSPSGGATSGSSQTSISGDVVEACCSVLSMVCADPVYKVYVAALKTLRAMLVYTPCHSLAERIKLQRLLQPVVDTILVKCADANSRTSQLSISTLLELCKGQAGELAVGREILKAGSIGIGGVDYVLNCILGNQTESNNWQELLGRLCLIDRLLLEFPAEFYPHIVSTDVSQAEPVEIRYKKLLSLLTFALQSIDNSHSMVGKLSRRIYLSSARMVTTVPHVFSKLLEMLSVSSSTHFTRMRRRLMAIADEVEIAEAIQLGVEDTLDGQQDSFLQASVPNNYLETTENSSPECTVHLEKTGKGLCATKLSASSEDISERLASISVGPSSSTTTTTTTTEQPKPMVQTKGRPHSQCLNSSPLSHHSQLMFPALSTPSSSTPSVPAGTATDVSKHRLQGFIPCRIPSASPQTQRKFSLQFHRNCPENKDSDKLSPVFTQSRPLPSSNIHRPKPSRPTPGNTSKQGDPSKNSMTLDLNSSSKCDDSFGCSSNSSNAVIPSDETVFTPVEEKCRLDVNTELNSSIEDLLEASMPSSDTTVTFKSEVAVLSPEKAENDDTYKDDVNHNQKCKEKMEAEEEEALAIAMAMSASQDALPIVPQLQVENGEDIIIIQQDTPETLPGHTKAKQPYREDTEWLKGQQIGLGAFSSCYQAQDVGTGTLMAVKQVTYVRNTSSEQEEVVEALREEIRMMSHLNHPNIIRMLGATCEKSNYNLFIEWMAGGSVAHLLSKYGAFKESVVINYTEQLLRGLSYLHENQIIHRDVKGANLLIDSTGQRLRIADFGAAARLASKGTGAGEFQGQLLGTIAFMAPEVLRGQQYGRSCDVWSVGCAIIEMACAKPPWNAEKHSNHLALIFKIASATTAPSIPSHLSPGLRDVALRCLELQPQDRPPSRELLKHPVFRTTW

hKIT-autoinhibited = molecular target: T17, hKIT-autoinhibited (Homo sapiens, UniProt P10721); experiment: KINOMEscan; type: binding
T17 construct: purchased DiscoverX (KINOMEscan platform)
T17 sequence (P10721 544-976 limits assumed): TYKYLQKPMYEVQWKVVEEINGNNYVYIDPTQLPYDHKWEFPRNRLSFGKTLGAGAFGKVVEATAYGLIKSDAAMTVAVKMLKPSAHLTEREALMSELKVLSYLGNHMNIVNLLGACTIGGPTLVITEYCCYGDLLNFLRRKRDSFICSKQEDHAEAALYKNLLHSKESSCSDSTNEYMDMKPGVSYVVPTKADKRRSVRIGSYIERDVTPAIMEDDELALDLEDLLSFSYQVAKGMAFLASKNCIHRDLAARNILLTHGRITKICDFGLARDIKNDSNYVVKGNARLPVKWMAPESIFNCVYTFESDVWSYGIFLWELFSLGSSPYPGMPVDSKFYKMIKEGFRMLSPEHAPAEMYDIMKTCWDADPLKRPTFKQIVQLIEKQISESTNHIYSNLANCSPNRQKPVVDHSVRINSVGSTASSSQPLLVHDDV

hSTK36 = molecular target: T18, hSTK36 (Homo sapiens, UniProt Q9NRP7); experiment: KINOMEscan; type: binding
T18 construct: purchased DiscoverX (KINOMEscan platform)

hRSK2(Kin.Dom.2-C-term) = molecular target: T19, hRSK2(Kin.Dom.2-C-term) (Homo sapiens, UniProt P51812); experiment: KINOMEscan; type: binding
T19 construct: hRSK2(Kin.Dom.2-C-term); purchased DiscoverX (KINOMEscan platform)
T19 sequence (P51812 422-679 limits assumed): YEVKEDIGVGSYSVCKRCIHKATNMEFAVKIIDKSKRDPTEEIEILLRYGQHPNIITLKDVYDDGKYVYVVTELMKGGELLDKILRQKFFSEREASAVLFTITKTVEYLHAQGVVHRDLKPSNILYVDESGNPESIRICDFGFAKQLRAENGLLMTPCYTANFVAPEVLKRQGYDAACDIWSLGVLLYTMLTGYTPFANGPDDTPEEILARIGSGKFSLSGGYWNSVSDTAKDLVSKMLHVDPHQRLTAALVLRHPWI

hROCK2 = molecular target: T20, hROCK2 (Homo sapiens, UniProt O75116); experiment: KINOMEscan; type: binding
T20 construct: purchased DiscoverX (KINOMEscan platform)

hTNNI3K = molecular target: T21, hTNNI3K (Homo sapiens, UniProt Q59H18); experiment: KINOMEscan; type: binding
T21 construct: purchased DiscoverX

hAURKC = molecular target: T22, hAURKC (Homo sapiens, UniProt Q9UQB9); experiment: KINOMEscan; type: binding
T22 construct: purchased DiscoverX

hSRMS = molecular target: T23, hSRMS (Homo sapiens, UniProt Q9H3Y6); experiment: KINOMEscan; type: binding
T23 construct: purchased DiscoverX (KINOMEscan platform)

hABL1(pF317I) = molecular target: T24, hABL1(pF317I) (Homo sapiens, UniProt P00519, F317I); experiment: KINOMEscan; type: binding
T24 construct: purchased DiscoverX (KINOMEscan platform)

hMEK6 = molecular target: T25, hMEK6 (Homo sapiens, UniProt P52564); experiment: KINOMEscan; type: binding
T25 construct: purchased DiscoverX
T25 sequence (P52564 whole entry): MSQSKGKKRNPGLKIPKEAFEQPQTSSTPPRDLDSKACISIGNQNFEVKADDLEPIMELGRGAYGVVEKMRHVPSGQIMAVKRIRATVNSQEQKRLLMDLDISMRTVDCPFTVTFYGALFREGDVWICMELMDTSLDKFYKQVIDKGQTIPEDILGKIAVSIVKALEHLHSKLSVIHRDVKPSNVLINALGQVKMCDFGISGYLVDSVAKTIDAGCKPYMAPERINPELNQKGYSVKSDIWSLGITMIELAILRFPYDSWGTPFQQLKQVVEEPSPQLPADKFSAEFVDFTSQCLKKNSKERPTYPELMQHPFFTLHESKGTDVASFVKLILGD

hJNK3 = molecular target: T26, hJNK3 (Homo sapiens, UniProt P53779); experiment: KINOMEscan; type: binding
T26 construct: purchased DiscoverX (KINOMEscan panel)

hCHEK1 = molecular target: T27, hCHEK1 (Homo sapiens, UniProt O14757); experiment: KINOMEscan; type: binding
T27 construct: purchased DiscoverX

hHIPK1 = molecular target: T28, hHIPK1 (Homo sapiens, UniProt Q86Z02); experiment: KINOMEscan; type: binding
T28 construct: purchased DiscoverX

hLXRα = molecular target: T29, hLXRα (Homo sapiens, UniProt Q13133); experiment: Nuclear hormone receptor assay (Eurofins-CEREP); conditions: read-out: Relative IC50
T29 construct: Eurofins-CEREP

hCDKL2 = molecular target: T30, hCDKL2 (Homo sapiens, UniProt Q92772); experiment: KINOMEscan; type: binding
T30 construct: purchased DiscoverX

hOPRm1 = hOPRm1 (Homo sapiens, UniProt P35372); experiment: cAMP Agonist (Eurofins-CEREP); conditions: @ 1 μM
hDCAMKL2 = molecular target: T31, hDCAMKL2 (Homo sapiens, UniProt Q8N568); experiment: KINOMEscan; type: binding
T31 construct: purchased DiscoverX (KINOMEscan platform)

T2 sequence (Q9Y6M4 whole entry): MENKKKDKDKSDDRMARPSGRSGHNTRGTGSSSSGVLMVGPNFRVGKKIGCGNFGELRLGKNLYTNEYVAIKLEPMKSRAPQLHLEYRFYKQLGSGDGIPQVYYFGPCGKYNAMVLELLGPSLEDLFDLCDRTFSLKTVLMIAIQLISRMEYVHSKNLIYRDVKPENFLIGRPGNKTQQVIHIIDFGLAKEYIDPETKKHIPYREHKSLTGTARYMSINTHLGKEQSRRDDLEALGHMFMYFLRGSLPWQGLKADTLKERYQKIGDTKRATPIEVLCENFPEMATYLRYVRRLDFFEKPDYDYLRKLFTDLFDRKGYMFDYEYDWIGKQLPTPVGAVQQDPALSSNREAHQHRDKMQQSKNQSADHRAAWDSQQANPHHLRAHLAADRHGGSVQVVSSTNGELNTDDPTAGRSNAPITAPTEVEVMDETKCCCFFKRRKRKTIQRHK

In the case of `Cc1cn(CCN2CCN(c3ccccc3-c3cc(C#N)cc(C(=O)NCCCN4CCCC4)c3)CC2)c2ccccc12` [LLY-507, 3-cyano-5-{2-[4-[2-(3-methylindol-1-yl)ethyl]piperazin-1-yl]-phenyl}-N-[(3-pyrrolidin-1-yl)propyl]benzamide], the IC50 (hULK2) is reported as > 20 µM, the IC50 (hCSNK1G3) is reported as > 20 µM and the IC50 (hSTK35) is reported as > 20 µM. For the same compound, the IC50 (hKIT(V559D,T670I)) was > 20 µM, the “% Effect, Stimulation” value (hADRβ1) was 52.7% and the IC50 (hASK1) was > 20 µM. The IC50 (hIGF1R) was > 20 µM, the IC50 (hFRK) was > 20 µM and the “% Effect, Stimulation” value (hADRα2A) was 0.2%. The IC50 (hWEE1) was > 20 µM, the IC50 (hEPHB4) was > 20 µM and the IC50 (hEGFR(L747-T751del,Sins)) was > 20 µM. The IC50 (hLYN) was > 20 µM, the “% Effect, Potentiation” value (h5HT2B) was -7.3% and the IC50 (hINSRR) was > 20 µM. The IC50 (hFYN) was > 20 µM, the IC50 (hFGFR3) was > 20 µM and the IC50 (hMARK4) was > 20 µM. The IC50 (hMAP3K1) was > 20 µM, the IC50 (hKIT-autoinhibited) was > 20 µM and the IC50 (hSTK36) was > 20 µM. The IC50 (hRSK2(Kin.Dom.2-C-term)) was > 20 µM, the IC50 (hROCK2) was > 20 µM and the IC50 (hTNNI3K) was > 20 µM. For the same compound, the IC50 (hAURKC) was > 20 µM, the IC50 (hSRMS) was > 20 µM and the IC50 (hABL1(pF317I)) was > 20 µM. The IC50 (hMEK6) was > 20 µM, the IC50 (hJNK3) was > 20 µM and the IC50 (hCHEK1) was > 20 µM. The IC50 (hHIPK1) was > 20 µM, the IC50 (hLXRα) was > 10 µM and the IC50 (hCDKL2) was > 20 µM. For the same compound, the “% Effect, Stimulation” value (hOPRm1) was 7.4% and the IC50 (hDCAMKL2) was > 20 µM.
